# Assay results taken from patent US11534457B2, “Use of dextran sulfate” (priority 2017, dated 2022).
# Test system: closed-head diffuse severe TBI (sTBI)
# Assay: sTBI in rats, dose study, HPLC of energy metabolites, antioxidants, oxidative/nitrosative stress biomarkers, NAA (Example 7)
# Assay type: in vivo, Male Wistar rats
# Protocol: Male Wistar rats (n=160) of 300-350 g body weight were used in this study. They were fed with standard laboratory diet and water ad libitum in a controlled environment.
# As the accepted anesthetic mixture, animals received 35 mg/kg b.w. ketamine and 0.25 mg/kg body weight midazolam by intramuscular injection. Diffuse sTBI was induced according to the “weight drop” impact acceleration model set up by Marmarou et al. J. Neurosurg. 1994, 80: 291-300. This model causes diffuse axonal injury and it is able to reproduce the physical and mechanical characteristics of the diffuse TBI in humans.
# Severe TBI was induced by dropping a 450 g weight from 2 meters height onto the rat head protected by a helmet (metal disk previously fixed on the skull using dental cement) in order to uniformly distribute the mechanical force to the brain. Rats were placed prone on a bed of specific polyurethane foam inserted in a special container; this foam dissipates the major part of the potential energy (deriving from the mechanical forces) and prevents any rebound of the animal after the impact that could produce spinal damages.
# After 2 or 7 days from TBI induction, rats were anesthetized again and then immediately sacrificed. These time points are coincident with the worst biochemical derangement (2 days) or, in the case of a mildly injured brain, with a full metabolic recovery (7 days).
# The drug treatment consisted in a subcutaneous injection of 0.5 ml of LMW-DS (Tikomed) and administered at 3 different concentrations (1, 5 and 15 mg/kg body weight), according to the schematic protocol described below.
# (§1) Rats subjected to sTBI and receiving a single administration of LMW-DS after 30 minutes post-TBI, with sacrifice at 2 days post-TBI. Animals were divided in the following subgroups: • 1. 12 animals subjected to sTBI and treated with 1 mg/kg b.w. LMW-DS • 2. 12 animals subjected to sTBI and treated with 5 mg/kg b.w. LMW-DS • 3. 12 animals subjected to sTBI and treated with 15 mg/kg b.w. LMW-DS
# as §1, with “at 7” for “at 2”
# Rats (n=12) subjected to sTBI and receiving repeated administrations of the maximal dose of LMW-DS (15 mg/kg b.w.) after 30 minutes, 3 days and 5 days post-TBI, with sacrifice at 7 days post-TBI. Four additional rats were used for the histo-morphological studies. Total rats in this group: n=16
# To minimize metabolite loss, an in vivo craniectomy was performed in all animals during anesthesia. The rat skull was carefully removed, the brain was exposed, sharply cut along the sagittal fissure and the two hemispheres were separated. The hemispheres dedicated to biochemical analyses were freeze-clamped by aluminum tongues pre-cooled in liquid nitrogen and then immersed in liquid nitrogen. The freeze-clamping procedure was introduced to accelerate freezing of the tissue, thus minimizing potential metabolite loss.
# Tissue homogenization for metabolite analyses was effected as described below. After the wet weight (w.w.) determination, the frozen hemispheres were placed into 7 ml of ice-cold, nitrogen-saturated, precipitating solution (1:10 w/v) composed by CH3CN+10 mM KH2PO4, pH 7.40, (3:1; v:v), and the homogenization was performed using an Ultra-Turrax homogenizer set at 24,000 rpm/min (Janke & Kunkel, Staufen, Germany). After centrifugation at 20,690×g, for 10 min at 4° C., the clear supernatants were saved, pellets were supplemented with an aliquot of 10 mM KH2PO4 and homogenized again as described above and saved overnight at −20° C. in order to obtain a complete recovery of aqueous phase from tissue. […]
# [1] = 1 mg/kg s.c. single, 30 min post-sTBI, sacrifice 2 days
# [2] = 15 mg/kg s.c. single, 30 min post-sTBI, sacrifice 2 days
# [3] = 2 days post sTBI, 5 or 15 mg/kg b.w.
# [4] = rats, 7 days post-sTBI, single administration of 15 mg/kg b.w.
substance,measurement,setting,value
low molecular weight dextran sulfate [LMW-DS],"CDP choline, brain concentration",[1],8.23 ± 1.22 nmol/g w.w.
same,"GDP Glucose, brain concentration",[1],65.66 ± 41.61 nmol/g w.w.
same,"UDP-Glc, brain concentration",[1],45.14 ± 6.68 nmol/g w.w.
same,"UDP-GlcNac, brain concentration",[1],96.62 ± 8.80 nmol/g w.w.
same,"NAD^+/NADH ratio, brain","1 mg/kg s.c. single, 30 min post-sTBI, sacrifice 2 days, adimensional",33.91 ± 9.32
same,"NAD^+/ADH, brain","1 mg/kg s.c. single, 30 min post-sTBI, sacrifice 7 days",33.91 ± 9.32
same,"GDP Glucose, brain concentration","5 mg/kg s.c. single, 30 min post-sTBI, sacrifice 2 days",83.81 ± 37.35 nmol/g w.w.
same,"CYTIDINE, brain concentration",[2],11.46 ± 2.07 nmol/g w.w.
same,"GDP Glucose, brain concentration",[2],84.24 ± 37.54 nmol/g w.w.
same,"UDP-Glc, brain concentration",[2],43.41 ± 06.43 nmol/g w.w.
same,"β-PSEUDOURIDINE, brain concentration",[2],7.84 ± 1.57 nmol/g w.w.
same,ascorbic acid and reduced glutathione (GSH),2 days post sTBI,significantly ameliorated
same,cerebral tissue nitrites and nitrates,2 days post sTBI,evident decrease
same,concentrations of UTP and ADP,2 days post sTBI,No effects
same,de-phosphorylated purines and pyrimidines,2 days post sTBI,positively affected
same,nicotinic coenzyme pool and NAD/NADH ratio,"2 days post sTBI, 15 mg/kg b.w.",effective only at the maximal dose tested
same,Acetyl-CoA,[3],partial rescue
same,whole brain NAA,[3],significantly higher than values found in sTBI rats
same,"high energy phosphates (ATP, GTP, and CTP) vs sTBI","2 days post sTBI, all three dosages (1, 5, 15 mg/kg)",Significantly higher values
same,"ATP level, lower than the value of controls",7 days post impact (untreated sTBI 35%),16%
same,"NAA concentration, lower than the value of controls",7 days post impact (untreated sTBI 48%),16%
same,de-phosphorylated purines and pyrimidines,7 days post sTBI,positively affected
same,CoA-SH and Acetyl-CoA,"7 days post sTBI, 5 or 15 mg/kg b.w. (single and repeat)",Remarkable positive effects
same,ATP,"7 days post sTBI, any dose tested",significant increases
same,concentrations of nicotinic coenzymes,"7 days post sTBI, excluding the lowest dose",significant improvement
same,"ascorbic acid and GSH, with decrease of nitrites and nitrates","7 days post sTBI, highest single and repeat dose",particularly beneficial
same,ATP/ADP ratio,"7 days post sTBI, increasing dose",progressively increased
same,whole brain NAA,"7 days post sTBI, increasing single doses or repeat maximal dose",dose dependent increase
same,cerebral energy metabolism,"7 days post sTBI, more evident above 1 mg/kg b.w.",general improvement
same,NAD+ level and NAD/NADH ratio,"7 days post sTBI, single and repeat 15 mg/kg b.w.",able to normalize NAD+ level and to restore the correct NAD/NADH ratio
same,ADENOSINE concentration in deproteinized brain homogenates,"rats, 7 days post-sTBI, repeated administration of 15 mg/kg b.w.",40.84 ± 30.25 nmol/g w.w.
same,GMP concentration in deproteinized brain homogenates,"rats, 7 days post-sTBI, single administration of 1 mg/kg b.w.",113.06 ± 53.51 nmol/g w.w.
same,ADENOSINE concentration in deproteinized brain homogenates,[4],55.95 ± 41.44 nmol/g w.w.
same,CDP choline concentration in deproteinized brain homogenates,[4],10.06 ± 3.23 nmol/g w.w.
